Experimental data as given in patent US8198307B2, “Imidazole derivatives having aryl piperidine substituent, method for preparation thereof and pharmaceutical compositions containing same” (Korea Research Institute of Chemical Technology, priority 2007, dated 2012).

Target: T1, MCH R1 (melanine-concentrating hormone receptor-1) (Homo sapiens, UniProt Q99705)
T1 construct: purchased Euroscreen, Gosselies, Belgium
Assay: Inhibitory effects on MCH R1 binding (Eu-MCH time-resolved fluorescence binding assay)
Settings: concentration inhibiting the binding of MCH (Eu-MCH, 2 nM) to MCH R1 by 50% in vitro; TRF readout; test range 1 nM to 10 μM; read-out: IC50
Procedure: First, MCH R1 (melanine-concentrating hormone receptor-1; Euroscreen, Gosselies, Belgium), 1 μM Europium-labeled melanine-concentrating hormone (Eu-MCH, PerkinElmer, Turku, Finland) and 1 mM melanine-concentrating hormone (MCH, #070-47, Phoenix, Belmont Calif., USA) were kept at 4° C. for ready use. 1 μM Eu-MCH and 1 mM MCH were diluted with an experimental solution (25 mM HEPES pH 7.4, 5 mM MgCl2, 1 mM CaCl2 and 0.5% (w/w) BSA) to 8 nM (final reaction concentration: 2 nM) and 2 μM (final reaction concentration: 0.5 μM), respectively. The compounds prepared in the Examples (“Test compounds”) were dissolved in the experimental solution in concentration of 4 nM to 40 μM (final reaction concentration: 1 nM to 10 μM). MCH R1 (200 assays/vial) was homogeneously dispersed in the experimental solution.
Then, 100 μl/well of the following reaction mixture was added to the wells of a microplate (Multiwell 96 well filter plates PN5020, Pall Co., Ann Arbor, Mich., USA) equipped with a filter paper, with an 8-channel pipette (multi 8-channel, Eppendorf, Hamburg, Germany). Specifically, to the wells of a non-specific binding control group, 25 μl of Eu-MCH, 50 μl of MCH R1 and 25 μl of MCH were added. Further, 25 μl of the experimental solution supplemented with 10% (w/w) of DMSO, 25 μl of Eu-MCH and 50 μl of MCH R1 were added to the wells of a total binding control group, while 25 μl of the test compounds, 25 μl Eu-MCH and 50 μl of MCH R1 were added to the wells of an experimental group. Subsequently, the microplate was shaken gently for 15 seconds and kept at room temperature for 90 minutes to allow the reaction to take place. Then, the plate was washed with a microplate washer (EMBLA, Molecular Devices) by washing three times with 300 μl of a washing solution (25 mM HEPES pH 7.4, 5 mM MgCl2, 1 mM CaCl2) to remove the residual unreacted Eu-MCH. Moisture was removed from the bottom of the wells and 150 μl of dissociation solution (DELFIA Enhancement solution, PerkinElmer, Turku, Finland) was added to each well, followed by keeping the plate at room temperature for 2 to 4 hours. Subsequently, time-resolved fluorescence (TRF) values were measured with a multilabel counter (Victor2, PerkinElmer, Turku, Finland) (emission wave length: 615 nm, excitation wave length: 340 nm). The inhibition rate based on the time-resolved fluorescence data was calculated using the following Equation (I). Inhibition rate of time-resolved fluorescence (%)=[(Average TRF value of the total binding group−Time-resolved fluorescence value of the test compound)/(Average TRF value of the total binding group−Average TRF value of the non-specific binding group)]×100 (I)

T1 sequence (Q99705 whole entry, species assumed): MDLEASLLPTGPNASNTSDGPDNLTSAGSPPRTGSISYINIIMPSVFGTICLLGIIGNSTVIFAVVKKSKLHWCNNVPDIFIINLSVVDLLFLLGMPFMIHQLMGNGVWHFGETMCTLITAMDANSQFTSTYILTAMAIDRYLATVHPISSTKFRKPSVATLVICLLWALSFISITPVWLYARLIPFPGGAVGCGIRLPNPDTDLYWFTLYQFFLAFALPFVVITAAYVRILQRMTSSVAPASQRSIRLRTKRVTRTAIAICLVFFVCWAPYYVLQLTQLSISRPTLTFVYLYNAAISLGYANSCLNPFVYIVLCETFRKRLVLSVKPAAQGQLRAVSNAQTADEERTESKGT

IC50 | Compound
42 nM | CC(=O)Nc1cccc(C2CCN(CCCn3c(-c4ccc(C)nc4)nc4ccccc43)CC2)c1 [Example 114, 2-(6-methylpyridin-3-yl)-1-{3-[4-(3-acetamidophenyl)piperidin-1-yl]propyl}-1H-benzimidazole]
306 nM | CC(=O)Nc1cccc(C2CCN(CCCn3c(-c4cscn4)nc4ccccc43)CC2)c1 [Example 122, 2-(thiazol-4-yl)-1-{3-[4-(3-acetamidophenyl)piperidin-1-yl]propyl}-1H-benzimidazole]
9 nM | COc1ccc(-c2nc3ccccc3n2CCCN2CCC(c3cccc(NC(C)=O)c3)CC2)cc1 [Example 19, 2-(4-methoxyphenyl)-1-{3-[4-(3-acetylaminophenyl)piperidin-1-yl]propyl}-1H-benzimidazole]
80 nM | CC(=O)Nc1cccc(C2CCN(CCCn3c(-c4ccc(F)cc4Cl)nc4cc(C)c(C)cc43)CC2)c1 [Example 80, 2-(2-chloro-4-fluorophenyl)-1-{3-[4-(3-acetylaminophenyl)piperidin-1-yl]propyl}-5,6-dimethyl-1H-benzimidazole]
14 nM | CC(=O)Nc1cccc(C2CCN(CCCn3c(-c4ccc(C)s4)nc4ccccc43)CC2)c1 [Example 110, 2-(5-methylthiophen-2-yl)-1-{3-[4-(3-acetylaminophenyl)piperidin-1-yl]propyl}-1H-benzimidazole]
1 nM | CC(=O)Nc1cccc(C2CCN(CCCn3c(-c4ccc(Cl)nc4)nc4ccccc43)CC2)c1 [Example 113, 2-(6-chloropyridin-3-yl)-1-{3-[4-(3-acetamidophenyl)piperidin-1-yl]propyl}-1H-benzimidazole]
1 nM | CC(=O)Nc1cccc(C2CCN(CCCCn3c(-c4ccc(Cl)cc4)nc4ccccc43)CC2)c1 [Example 6, 2-(4-chlorophenyl)-1-{4-[4-(3-acetylaminophenyl)piperidin-1-yl]butyl}-1H-benzimidazole]
10 nM | CC(=O)Nc1cccc(C2CCN(CCCn3c(-c4ccccc4F)nc4ccccc43)CC2)c1 [Example 15, 2-(2-fluorophenyl)-1-{3-[4-(3-acetylaminophenyl)piperidin-1-yl]propyl}-1H-benzimidazole]
635 nM | CC(=O)Nc1cccc(C2CCN(CCCn3c(-c4cccc(Cl)c4)nc4ccc([N+](=O)[O-])cc43)CC2)c1 [Example 41, 2-(3-chlorophenyl)-1-{3-[4-(3-acetylaminophenyl)piperidin-1-yl]propyl}-6-nitro-1H-benzimidazole]
33 nM | CC(=O)Nc1cccc(C2CCN(CCCn3c(-c4ccccn4)nc4ccccc43)CC2)c1 [Example 104, 2-(pyridin-2-yl)-1-{3-[4-(3-acetamidophenyl)piperidin-1-yl]propyl}-1H-benzimidazole]
5 nM | CC(=O)Nc1cccc(C2CCN(CCCn3c(-c4ccccc4)nc4cc(C)c(C)cc43)CC2)c1 [Example 21, 2-phenyl-1-{3-[4-(3-acetylaminophenyl)piperidin-1-yl]propyl}-5,6-dimethyl-1H-benzimidazole]
70 nM | CC(=O)Nc1cccc(C2CCN(CCCn3c(-c4ccc(Cl)cc4)nc4ccc(C#N)cc43)CC2)c1 [Example 82, 2-(4-chlorophenyl)-1-{3-[4-(3-acetylaminophenyl)piperidin-1-yl]propyl}-6-cyano-1H-benzimidazole]
3 nM | CC(=O)Nc1cccc(C2CCN(CCCn3c(-c4cccnc4)nc4cc([N+](=O)[O-])ccc43)CC2)c1 [Example 117, 5-nitro-2-(pyridin-3-yl)-1-{3-[4-(3-acetamidophenyl)piperidin-1-yl]propyl}-1H-benzimidazole]
42 nM | CC(=O)Nc1cccc(C2CCN(CCCn3c(-c4ccc(Oc5ccccc5)cc4)nc4ccccc43)CC2)c1 [Example 47, 2-(4-phenoxyphenyl)-1-{3-[4-(3-acetylaminophenyl)piperidin-1-yl]propyl}-1H-benzimidazole]
22 nM | COc1ccc(-c2nc3ccccc3n2CCCN2CCC(c3cccc(NC(C)=O)c3)CC2)c(OC)c1 [Example 58, 2-(2,4-dimethoxyphenyl)-1-{3-[4-(3-acetylaminophenyl)piperidin-1-yl]propyl}-1H-benzimidazole]
